According to PubChem BioAssay (NCI):
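Protocol summary: plate cells (96-well), add compound at 5 concentrations, incubate 48 h, interpolate endpoints linearly. Definition used: TGI = concentration required for complete inhibition of growth.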

Tests used:
Assay in all cases: DTP human tumour cell line panel, 48 h
[1] = test system: 786-0 renal
[2] = test system: BT-549 breast
[3] = test system: COLO 205 colon
[4] = test system: HCC-2998 colon
[5] = test system: MALME-3M melanoma
[6] = test system: MCF7 breast
[7] = test system: MDA-MB-231 breast
[8] = test system: NCI-H226 lung
[9] = test system: NCI-H23 lung
[10] = test system: NCI-H522 lung
[11] = test system: RPMI-8226 leukemia
[12] = test system: RXF 393 renal
[13] = test system: SF-268 CNS
[14] = test system: SF-539 CNS
[15] = test system: SK-MEL-2 melanoma
[16] = test system: SK-OV-3 ovarian
[17] = test system: SNB-19 CNS
[18] = test system: SW-620 colon
[19] = test system: UACC-257 melanoma
[20] = test system: HOP-92 NSCLC

SMILES | TGI [1] [µM] | TGI [2] [µM] | TGI [3] [µM] | TGI [4] [µM] | TGI [5] [µM] | TGI [6] [µM] | TGI [7] [µM] | TGI [8] [µM] | TGI [9] [µM] | TGI [10] [µM] | TGI [11] [µM] | TGI [12] [µM] | TGI [13] [µM] | TGI [14] [µM] | TGI [15] [µM] | TGI [16] [µM] | TGI [17] [µM] | TGI [18] [µM] | TGI [19] [µM] | TGI [20] [µM]
Cc1[nH]c2c(C)ccc(C)c2c1CC(=O)O | > 100 | > 100 | > 100 | > 100 | > 100 | > 100 | 76.3 | > 100 | > 100 | 62.1 | 66.8 | > 100 | > 100 | > 100 | 81.9 | > 100 | > 100 | > 100 | > 100 | 
NC(=S)SCCC(=O)O | > 100 | > 100 | > 100 | > 100 | > 100 | > 100 | > 100 | > 100 | > 100 | > 100 | > 100 |  | > 100 | > 100 | > 100 | > 100 | > 100 | > 100 | > 100 | > 100
O=C1CC2[C@@H](N3CCCC3)CCC(N1Cc1ccccc1)C2(O)O (some centres undefined) | > 100 | > 100 | > 100 | > 100 | > 100 | > 100 | > 100 | > 100 | > 100 | > 100 |  | > 100 | > 100 | > 100 |  | > 100 | > 100 | > 100 | > 100 | > 100
O=[N+]([O-])C(/C(Cl)=C(/Cl)N1CCCCC1)=C1\NCCO1 | > 100 | > 100 | > 100 | > 100 | > 100 | > 100 | > 100 | > 100 | > 100 |  | > 100 |  | > 100 | > 100 | > 100 | > 100 | > 100 | > 100 | > 100 | 
CC(=O)O[C@H]1CC[C@H]2[C@@H]3CCc4cc(O)c(I)cc4[C@H]3CC[C@]12C | 27.1 | 29.4 | 33.6 | 32.2 | 37 | 33.8 | 12.3 | 30.7 | 27.4 | 25.2 | 41.9 |  | 28.4 | 29.7 | 37.3 | 29.1 | 32.3 | 27.7 | 30 | 
C1COC2SC3=C(SC(=C4SC5=C(SCCS5)S4)S3)SC2O1 (centres undefined) | > 100 | > 100 | > 100 | > 100 | > 100 | > 100 | > 100 | > 100 | > 100 | > 100 |  | > 100 | > 100 | > 100 | > 100 | > 100 | > 100 | > 100 | > 100 | > 100
CC1CCCOc2ccc(cc2)C=Nc2ccc(cc2)CCc2ccc(cc2)N=Cc2ccc(cc2)OCCC1 (centres undefined) | > 100 | > 100 | > 100 | > 100 | > 100 | > 100 | > 100 | > 100 | > 100 | > 100 | > 100 |  | > 100 | > 100 | > 100 |  | > 100 | > 100 | > 100 | > 100
CC(C)(C)CN1[C@@H]2CCCC[C@H]2N(CC(C)(C)C)P1(=O)Cc1ccccc1 | 29.9 | 31.2 | 22.2 | 21.2 | 26.3 | 26.2 | 24.9 | 29.7 | 26.2 | 20.6 |  | 24.1 | 28.7 | 31.6 | 29.9 | 29.2 | 28.6 | 30.7 | 25.6 | 
Cc1ccc(S(=O)(=O)Nn2c(-c3ccccc3)c(C#N)c(-c3ccc(Cl)cc3)c(C#N)c2=O)cc1 | 30.9 | 61.2 | 65.3 | > 100 |  | > 100 | 89.5 |  |  |  | 37.4 | > 100 |  | 55.7 | 52.4 | > 100 | > 100 | > 100 | > 100 | 79.7
COc1ccc(NC(=O)C(=O)C(CC2C(=O)NC(=S)NC2=O)C(=O)c2ccc3ccccc3c2)c([N+](=O)[O-])c1 (centres undefined) | > 100 | > 100 | > 100 | > 100 |  | > 100 | > 100 | > 100 | > 100 | > 100 | > 100 |  | > 100 | > 100 | > 100 | > 100 | > 100 | > 100 | > 100 | > 100
COc1ccc(-c2oc3c(CC(=O)O)cccc3c(=O)c2OC)cc1 | > 100 | > 100 | > 100 | > 100 | > 100 | > 100 | > 100 | > 100 | > 100 | > 100 |  | > 100 | > 100 | > 100 | > 100 | > 100 |  |  | > 100 | 
Cc1ccc(SCC(OCn2cnc3c(N)ncnc32)[C@H](C)F)cc1 (some centres undefined) | > 100 | > 100 | > 100 | > 100 | > 100 | > 100 | > 100 | > 100 | > 100 | > 100 | > 100 |  | > 100 | > 100 | > 100 | > 100 | > 100 | > 100 | > 100 | > 100
